The source of these data is PubChem BioAssay (NCI).

The structures appear in SMILES notation.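 Method: 48-hour compound exposure of cells in 96-well plates, five concentrations, linear interpolation of endpoints. Abbreviation: GI50, concentration required for 50% inhibition of growth. Definition used: TGI = concentration required for complete inhibition of growth.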

Among the test systems are ACHN renal; BT-549 breast; COLO 205 colon; HCC-2998 colon; HCT-15 colon; NCI-H460 lung; NCI-H522 lung; NCI/ADR-RES ovarian; SK-MEL-28 melanoma; T-47D breast.
Holding throughout (assay): growth of human tumour cells (NCI), 48 h

On to `OC(COc1ccc(Cl)cc1Cl)CN1CCCC1` (stereo not given), for which the TGI in the assay with ACHN renal, with BT-549 breast, in the assay with COLO 205 colon, with HCC-2998 colon, in the assay on HCT-15 colon and in the assay on NCI-H460 lung was more than 100 µM throughout. The TGI with NCI-H522 lung, in the assay with NCI/ADR-RES ovarian, in the assay on SK-MEL-28 melanoma and with T-47D breast was more than 100 µM each time.

On to `NC1=CC(=O)C(=O)c2cccnc21`, for which the GI50 in the assay on ACHN renal is 6.73 µM; in the assay on BT-549 breast it was 4.73 µM; with COLO 205 colon it was 16.6 µM; with HCC-2998 colon, 14.7 µM; in the assay with HCT-15 colon it was 5.37 µM; in the assay on NCI-H460 lung, 2.63 µM. Besides, the GI50 in the assay with NCI-H522 lung was 7.32 µM; in the assay with NCI/ADR-RES ovarian, 3.6 µM; in the assay on SK-MEL-28 melanoma, 2.6 µM; in the assay on T-47D breast, 3.68 µM. Further, the TGI was 19.9 µM in the assay with ACHN renal; 18.7 µM with BT-549 breast; 30.1 µM in the assay on COLO 205 colon; 28.4 µM in the assay with HCC-2998 colon; 23.4 µM in the assay with HCT-15 colon; 7.38 µM in the assay with NCI-H460 lung. For the same compound, the TGI in the assay with NCI-H522 lung turned out to be 22.6 µM; with NCI/ADR-RES ovarian it was 24 µM; with SK-MEL-28 melanoma, 6.38 µM; in the assay on T-47D breast, 9.73 µM.

Regarding `Clc1ccccc1-c1nc2ccccc2[nH]1`, the GI50 in the assay with ACHN renal, with BT-549 breast, in the assay with COLO 205 colon, in the assay with HCC-2998 colon, in the assay with HCT-15 colon and in the assay on NCI-H460 lung was more than 100 µM in each case. The GI50 in the assay with NCI-H522 lung, in the assay with NCI/ADR-RES ovarian, with SK-MEL-28 melanoma and with T-47D breast was more than 100 µM in each case. The TGI in the assay with ACHN renal, with BT-549 breast, in the assay with COLO 205 colon, with HCC-2998 colon, in the assay with HCT-15 colon and in the assay on NCI-H460 lung was more than 100 µM throughout. In addition, the TGI with NCI-H522 lung, in the assay with NCI/ADR-RES ovarian, with SK-MEL-28 melanoma and with T-47D breast was more than 100 µM each time.

In the case of `O=C(CCCn1ccnc1[N+](=O)[O-])NCCn1cnc([N+](=O)[O-])c1`, the TGI in the assay with ACHN renal, in the assay on BT-549 breast, in the assay on COLO 205 colon, in the assay with HCC-2998 colon, in the assay on HCT-15 colon and in the assay with NCI-H460 lung was more than 100 µM throughout. Besides, the TGI with NCI-H522 lung, in the assay with NCI/ADR-RES ovarian, with SK-MEL-28 melanoma and in the assay with T-47D breast was more than 100 µM in each case.

With `CC(C)(C)c1ccc(C(=O)N/N=C/c2ccc(O)cc2O)cc1`, the GI50 was 0.334 µM in the assay with ACHN renal; 0.933 µM with BT-549 breast; 0.377 µM in the assay with COLO 205 colon; 0.695 µM in the assay with HCC-2998 colon; 0.325 µM in the assay on HCT-15 colon; 0.32 µM with NCI-H460 lung. The GI50 with NCI-H522 lung is 1.2 µM; in the assay with NCI/ADR-RES ovarian, 0.351 µM; in the assay with SK-MEL-28 melanoma, 0.595 µM; in the assay on T-47D breast it was 0.786 µM. For the same compound, the TGI in the assay with ACHN renal stood at 7.74 µM; in the assay on BT-549 breast, 9.53 µM; with COLO 205 colon, 6.76 µM; in the assay with HCC-2998 colon, 7.62 µM; with HCT-15 colon, 2.12 µM; in the assay with NCI-H460 lung, 1.88 µM. Besides, the TGI in the assay with NCI-H522 lung stood at 14 µM; with NCI/ADR-RES ovarian, 19.3 µM; with SK-MEL-28 melanoma, 13.9 µM; in the assay with T-47D breast it was 32.6 µM.

In the case of `O=C1OCC2=C1C(c1cccc(F)c1)c1cc3c(cc1N2CCO)OCCO3` (stereo not given), the GI50 in the assay on ACHN renal was 0.386 µM; in the assay on BT-549 breast, 0.417 µM; in the assay on COLO 205 colon it was 0.204 µM; in the assay on HCC-2998 colon, 0.768 µM; in the assay on HCT-15 colon it was 0.193 µM; with NCI-H460 lung it was 0.187 µM. For the same compound, the GI50 with NCI-H522 lung was 0.0418 µM; in the assay on NCI/ADR-RES ovarian it was 0.208 µM; in the assay on SK-MEL-28 melanoma it was 1.5 µM; in the assay with T-47D breast, 0.203 µM. In addition, the TGI was more than 50 µM in the assay on ACHN renal; 11.4 µM in the assay with BT-549 breast; 7.43 µM with COLO 205 colon; more than 50 µM with HCC-2998 colon; more than 50 µM in the assay on HCT-15 colon; more than 50 µM in the assay with NCI-H460 lung. The TGI in the assay on NCI-H522 lung was 2.58 µM; in the assay on NCI/ADR-RES ovarian, more than 50 µM; with SK-MEL-28 melanoma, more than 50 µM; with T-47D breast it was more than 50 µM.

Consider `O=C1C2C(C(=O)[N]1[Hg][c]1ccccc1)C1(Cl)C(Cl)=C(Cl)C2(Cl)C1(Cl)Cl` (stereo not given), for which the GI50 with ACHN renal was 1.69 µM; in the assay on BT-549 breast, 1.2 µM; with COLO 205 colon, 0.809 µM; with HCC-2998 colon, 2.12 µM; in the assay on HCT-15 colon, 0.583 µM; in the assay with NCI-H460 lung, 2.61 µM. The GI50 in the assay on NCI-H522 lung was 0.203 µM; in the assay with NCI/ADR-RES ovarian it was 2.69 µM; in the assay on SK-MEL-28 melanoma, 1.38 µM; in the assay with T-47D breast it was 0.225 µM. In addition, the TGI in the assay on ACHN renal came to 3.07 µM; in the assay on BT-549 breast, 2.49 µM; in the assay on COLO 205 colon, 2.05 µM; in the assay on HCC-2998 colon it was 4.1 µM; with HCT-15 colon it was 2.2 µM; in the assay on NCI-H460 lung, 12.4 µM. The TGI came out at 0.531 µM in the assay with NCI-H522 lung, 8.97 µM with NCI/ADR-RES ovarian, 2.73 µM with SK-MEL-28 melanoma and 1.58 µM in the assay with T-47D breast.

Take `Nc1c(C(=O)Nc2cccc3ccccc23)sc2nc3c(cc12)CCCC3`: the GI50 in the assay on ACHN renal was 4.37 µM; in the assay with BT-549 breast, 1.4 µM; in the assay on COLO 205 colon, 2.45 µM; with HCC-2998 colon, 4.17 µM; in the assay with HCT-15 colon, 0.565 µM; in the assay with NCI-H460 lung, 2.98 µM. Moreover, the GI50 with NCI-H522 lung is 0.417 µM; in the assay with NCI/ADR-RES ovarian, 0.833 µM; in the assay on SK-MEL-28 melanoma, 19.2 µM; in the assay with T-47D breast it was 0.44 µM. Further, the TGI is more than 100 µM in the assay with ACHN renal; 17.2 µM in the assay with BT-549 breast; 9.53 µM with COLO 205 colon; more than 100 µM in the assay with HCC-2998 colon; more than 100 µM in the assay on HCT-15 colon; more than 100 µM in the assay with NCI-H460 lung. The TGI in the assay on NCI-H522 lung is 4.6 µM; with NCI/ADR-RES ovarian, more than 100 µM; with SK-MEL-28 melanoma, more than 100 µM; in the assay on T-47D breast, 90.5 µM.
